# Laboratory results: ChEMBL document CHEMBL1140360, “Synthesis and biological activity of 3,4-dihydroquinazolines for selective T-type Ca2+ channel blockers” (Bioorg Med Chem Lett, 2005)
# Assays:
# Assay type in all cases: cell-based
# [1] = system: HEK293; assay: Selectivity for T-type and N-type [Ca2+] channels expressed in HEK293 cells at 10 uM; conditions: Homo sapiens
# [2] = target: Voltage-dependent T-type calcium channel subunit alpha-1H (Homo sapiens) (UniProt O95180); assay: Percent inhibition of T-type [Ca2+] channel (alpha1H) stably expressed in Xenopus oocytes at 100 uM; conditions: Oocyte
# Sequence of Voltage-dependent T-type calcium channel subunit alpha-1H (Homo sapiens) (O95180 whole entry): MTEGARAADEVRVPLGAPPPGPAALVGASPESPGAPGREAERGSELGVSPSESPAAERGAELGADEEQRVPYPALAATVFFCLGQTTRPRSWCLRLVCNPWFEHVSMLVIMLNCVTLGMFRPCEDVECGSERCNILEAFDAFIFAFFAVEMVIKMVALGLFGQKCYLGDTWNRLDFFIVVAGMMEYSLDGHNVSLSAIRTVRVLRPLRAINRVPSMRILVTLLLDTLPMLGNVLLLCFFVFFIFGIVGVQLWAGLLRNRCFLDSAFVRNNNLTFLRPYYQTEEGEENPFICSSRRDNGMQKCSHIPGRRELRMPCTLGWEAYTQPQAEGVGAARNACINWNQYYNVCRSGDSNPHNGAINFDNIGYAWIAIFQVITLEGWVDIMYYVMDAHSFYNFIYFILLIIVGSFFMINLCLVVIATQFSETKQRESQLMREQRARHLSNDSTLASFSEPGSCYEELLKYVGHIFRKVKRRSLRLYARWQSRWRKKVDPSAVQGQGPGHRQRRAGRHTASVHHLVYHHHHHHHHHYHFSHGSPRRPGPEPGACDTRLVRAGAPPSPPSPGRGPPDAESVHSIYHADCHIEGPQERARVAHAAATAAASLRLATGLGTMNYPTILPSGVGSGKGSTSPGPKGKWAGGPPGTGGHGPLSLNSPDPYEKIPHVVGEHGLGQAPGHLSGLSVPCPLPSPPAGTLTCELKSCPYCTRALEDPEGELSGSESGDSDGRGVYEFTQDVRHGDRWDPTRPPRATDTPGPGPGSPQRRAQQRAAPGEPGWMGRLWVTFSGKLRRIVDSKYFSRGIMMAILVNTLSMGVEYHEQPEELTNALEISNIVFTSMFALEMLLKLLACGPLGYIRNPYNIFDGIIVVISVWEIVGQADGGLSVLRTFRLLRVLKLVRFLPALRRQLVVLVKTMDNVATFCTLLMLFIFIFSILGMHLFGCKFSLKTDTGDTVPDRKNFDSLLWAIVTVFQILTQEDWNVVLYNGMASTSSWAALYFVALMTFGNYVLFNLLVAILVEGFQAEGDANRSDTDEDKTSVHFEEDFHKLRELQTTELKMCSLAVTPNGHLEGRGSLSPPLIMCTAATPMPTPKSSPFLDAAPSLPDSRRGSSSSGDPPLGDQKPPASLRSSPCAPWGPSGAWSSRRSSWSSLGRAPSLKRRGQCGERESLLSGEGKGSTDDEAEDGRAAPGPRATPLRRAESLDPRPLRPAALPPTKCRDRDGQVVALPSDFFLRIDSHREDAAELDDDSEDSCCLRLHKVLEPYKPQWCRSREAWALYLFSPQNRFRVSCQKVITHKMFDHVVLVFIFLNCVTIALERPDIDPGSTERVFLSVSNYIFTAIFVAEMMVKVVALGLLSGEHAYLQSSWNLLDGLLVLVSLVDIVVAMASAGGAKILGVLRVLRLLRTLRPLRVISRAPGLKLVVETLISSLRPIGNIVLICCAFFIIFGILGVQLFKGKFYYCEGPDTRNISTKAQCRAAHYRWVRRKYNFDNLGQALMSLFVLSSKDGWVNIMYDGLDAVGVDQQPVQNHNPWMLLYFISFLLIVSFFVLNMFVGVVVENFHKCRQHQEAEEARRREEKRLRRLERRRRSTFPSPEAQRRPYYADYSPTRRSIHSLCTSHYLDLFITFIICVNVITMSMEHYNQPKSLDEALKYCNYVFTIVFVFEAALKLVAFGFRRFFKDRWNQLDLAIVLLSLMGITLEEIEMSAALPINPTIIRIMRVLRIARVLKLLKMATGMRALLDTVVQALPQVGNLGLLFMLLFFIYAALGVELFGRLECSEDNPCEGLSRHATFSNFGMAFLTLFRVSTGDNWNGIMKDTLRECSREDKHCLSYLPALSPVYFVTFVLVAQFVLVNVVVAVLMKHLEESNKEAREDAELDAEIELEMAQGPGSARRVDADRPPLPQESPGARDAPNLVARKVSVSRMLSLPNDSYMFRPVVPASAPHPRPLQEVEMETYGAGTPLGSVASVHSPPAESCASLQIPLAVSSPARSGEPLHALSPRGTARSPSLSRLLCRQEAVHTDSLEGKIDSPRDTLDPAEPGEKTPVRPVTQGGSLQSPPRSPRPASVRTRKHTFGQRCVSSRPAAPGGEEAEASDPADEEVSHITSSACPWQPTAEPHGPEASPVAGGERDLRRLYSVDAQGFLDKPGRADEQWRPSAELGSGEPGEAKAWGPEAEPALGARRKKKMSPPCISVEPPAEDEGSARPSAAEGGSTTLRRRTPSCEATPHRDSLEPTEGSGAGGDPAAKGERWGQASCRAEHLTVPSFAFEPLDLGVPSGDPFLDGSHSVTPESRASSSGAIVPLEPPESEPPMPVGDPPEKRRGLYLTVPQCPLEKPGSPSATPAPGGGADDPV
# [3] = target: Voltage-dependent N-type calcium channel subunit alpha-1B (Homo sapiens) (UniProt Q00975); assay: Percent inhibition of N-type [Ca2+] channel (Alpha-1B) expressed in HEK293 cells at 10 uM
# [4] = target: T1, Voltage-dependent T-type calcium channel subunit alpha-1G (Homo sapiens, UniProt O43497); assay: Inhibition of T-type [Ca2+] channel (alpha1G) expressed in HEK293 cells
# T1 sequence (O43497 whole entry): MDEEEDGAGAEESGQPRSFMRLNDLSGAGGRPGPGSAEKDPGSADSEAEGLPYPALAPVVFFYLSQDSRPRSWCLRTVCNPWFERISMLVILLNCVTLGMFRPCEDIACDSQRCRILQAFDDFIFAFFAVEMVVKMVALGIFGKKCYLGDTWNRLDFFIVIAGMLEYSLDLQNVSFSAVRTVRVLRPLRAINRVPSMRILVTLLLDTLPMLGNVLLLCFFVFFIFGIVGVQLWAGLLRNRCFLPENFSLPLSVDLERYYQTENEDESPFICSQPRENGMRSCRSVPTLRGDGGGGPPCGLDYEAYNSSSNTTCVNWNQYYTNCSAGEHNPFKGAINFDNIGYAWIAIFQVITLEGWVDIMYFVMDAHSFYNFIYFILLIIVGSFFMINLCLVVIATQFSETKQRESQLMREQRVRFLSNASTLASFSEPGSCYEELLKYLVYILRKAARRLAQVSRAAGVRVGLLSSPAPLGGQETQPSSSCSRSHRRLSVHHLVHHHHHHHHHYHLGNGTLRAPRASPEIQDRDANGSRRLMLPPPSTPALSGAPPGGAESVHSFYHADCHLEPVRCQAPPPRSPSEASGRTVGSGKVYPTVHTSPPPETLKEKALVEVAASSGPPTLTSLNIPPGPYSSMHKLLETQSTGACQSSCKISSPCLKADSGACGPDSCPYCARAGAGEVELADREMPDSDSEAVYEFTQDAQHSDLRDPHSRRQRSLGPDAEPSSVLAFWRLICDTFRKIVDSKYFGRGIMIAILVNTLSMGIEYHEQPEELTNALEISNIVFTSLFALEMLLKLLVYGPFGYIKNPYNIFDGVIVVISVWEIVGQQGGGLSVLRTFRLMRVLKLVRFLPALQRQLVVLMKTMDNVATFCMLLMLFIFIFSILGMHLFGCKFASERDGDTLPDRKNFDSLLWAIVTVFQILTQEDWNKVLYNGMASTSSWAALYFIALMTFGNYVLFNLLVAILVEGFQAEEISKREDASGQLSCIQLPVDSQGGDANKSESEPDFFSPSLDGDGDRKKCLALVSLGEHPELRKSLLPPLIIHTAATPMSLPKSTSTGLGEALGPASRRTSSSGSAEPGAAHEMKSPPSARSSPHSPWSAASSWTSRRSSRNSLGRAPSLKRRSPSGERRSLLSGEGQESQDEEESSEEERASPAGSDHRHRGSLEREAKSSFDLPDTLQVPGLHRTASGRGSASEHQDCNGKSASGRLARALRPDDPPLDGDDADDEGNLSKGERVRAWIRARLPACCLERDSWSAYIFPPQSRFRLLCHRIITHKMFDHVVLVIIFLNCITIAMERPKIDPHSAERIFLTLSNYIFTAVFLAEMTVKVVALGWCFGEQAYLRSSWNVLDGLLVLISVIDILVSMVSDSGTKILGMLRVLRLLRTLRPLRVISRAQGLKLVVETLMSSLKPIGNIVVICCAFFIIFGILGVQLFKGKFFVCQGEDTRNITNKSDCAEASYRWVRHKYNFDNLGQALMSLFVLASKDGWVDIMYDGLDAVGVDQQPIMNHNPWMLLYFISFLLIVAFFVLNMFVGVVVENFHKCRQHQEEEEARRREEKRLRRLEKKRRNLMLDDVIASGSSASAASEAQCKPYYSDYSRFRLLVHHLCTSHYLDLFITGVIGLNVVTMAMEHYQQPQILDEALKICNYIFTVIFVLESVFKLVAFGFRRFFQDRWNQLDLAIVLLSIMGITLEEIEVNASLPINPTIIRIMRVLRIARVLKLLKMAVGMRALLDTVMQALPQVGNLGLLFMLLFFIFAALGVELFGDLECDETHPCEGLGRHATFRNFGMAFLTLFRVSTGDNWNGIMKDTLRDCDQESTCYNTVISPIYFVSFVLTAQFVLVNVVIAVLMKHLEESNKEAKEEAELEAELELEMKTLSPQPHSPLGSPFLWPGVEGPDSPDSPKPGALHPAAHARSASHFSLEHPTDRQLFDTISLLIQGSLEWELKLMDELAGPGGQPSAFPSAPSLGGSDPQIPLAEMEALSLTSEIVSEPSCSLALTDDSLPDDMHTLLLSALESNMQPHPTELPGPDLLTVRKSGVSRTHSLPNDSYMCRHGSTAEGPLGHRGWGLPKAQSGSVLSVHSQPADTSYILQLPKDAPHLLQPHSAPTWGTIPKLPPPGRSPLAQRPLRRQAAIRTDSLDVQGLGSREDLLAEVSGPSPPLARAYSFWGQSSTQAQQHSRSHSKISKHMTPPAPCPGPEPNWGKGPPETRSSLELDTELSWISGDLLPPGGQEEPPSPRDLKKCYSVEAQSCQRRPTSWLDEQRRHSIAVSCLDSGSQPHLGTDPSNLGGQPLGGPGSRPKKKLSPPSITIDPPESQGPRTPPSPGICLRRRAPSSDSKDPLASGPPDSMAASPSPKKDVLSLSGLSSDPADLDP
# [5] = target: T1, Voltage-dependent T-type calcium channel subunit alpha-1G; assay: Percent inhibition of T-type [Ca2+] channel (alpha1G) expressed in HEK293 cells at 10 uM
# [6] = target: Voltage-dependent N-type calcium channel subunit alpha-1B (Homo sapiens) (UniProt Q00975); assay: Percent inhibition of N-type [Ca2+] channel (Alpha-1B) expressed in HEK293 cells at 10 uM; No blocking
Structure (SMILES),inhibition [2],inhibition [3],IC50 [4],inhibition [5],inhibition [6],Selectivity [1]
COCC(=O)O[C@]1(CCN(C)CCCc2nc3ccccc3[nH]2)CCc2cc(F)ccc2[C@@H]1C(C)C,,67.6%,,,,
O=C(CC1c2ccccc2N=C(N2CCCCC2)N1c1ccccc1)NCc1ccccc1 (configuration not stated),,,1160 nM,,,
CC(C)(C)OC(=O)NCCCCCNC1=Nc2ccccc2C(CC(=O)NCc2ccccc2)N1c1ccc(-c2ccccc2)cc1 (configuration not stated),84.2%,16.6%,160 nM,88.3%,,5.3
NCCCCCN1C(Nc2ccc(-c3ccccc3)cc2)=Nc2ccccc2C1CC(=O)NCc1ccccc1 (configuration not stated),97%,15.2%,140 nM,91.8%,,6
Cc1ccc(S(=O)(=O)Nc2ccc(CNC(=O)CC3c4ccccc4N=C(N4CCCCC4)N3c3ccccc3)cc2)cc1 (configuration not stated),,,170 nM,,,
CC(C)(C)OC(=O)NCCCCCN1C(Nc2ccc(-c3ccccc3)cc2)=Nc2ccccc2C1CC(=O)NCc1ccccc1 (configuration not stated),91.2%,30.1%,170 nM,88.5%,,2.9
O=C(CC1c2ccccc2N=C(N2CCCCC2)N1c1ccccc1)NCc1ccc(NS(=O)(=O)c2ccc(F)cc2)cc1 (configuration not stated),,,110 nM,,,

# Second part, led by results:
inhibition [2],inhibition [3],IC50 [4],inhibition [5],inhibition [6],Structure (SMILES),Selectivity [1]
96.5%,94.9%,370 nM,88.5%,,COC(=O)CC1c2ccccc2N=C(Nc2ccc(-c3ccccc3)cc2)N1CCCCCNC(=O)OC(C)(C)C (configuration not stated),0.9
80.1%,8.3%,130 nM,83.8%,,NCCCCCNC1=Nc2ccccc2C(CC(=O)NCc2ccccc2)N1c1ccc(-c2ccccc2)cc1 (configuration not stated),10.1
97%,,,82.5%,< 1%,COC(=O)CC1c2ccccc2N=C(NCCCCCN)N1c1ccc(-c2ccccc2)cc1 (configuration not stated),
92.2%,98.6%,680 nM,86.5%,,COC(=O)CC1c2ccccc2N=C(NCCCCCNC(=O)OC(C)(C)C)N1c1ccc(-c2ccccc2)cc1 (configuration not stated),0.9
94.6%,7.5%,300 nM,84.1%,,COC(=O)CC1c2ccccc2N=C(Nc2ccc(-c3ccccc3)cc2)N1CCCCCN (configuration not stated),11.2
